Assay results: patent US20250114363A1, “PHARMACEUTICAL COMPOSITION COMPRISING ALLOPURINOL, FEBUXOSTAT, OR A PHARMACEUTICALLY ACCEPTABLE SALT THEREOF FOR PREVENTING OR TREATING CARDIOVASCULAR DISEASE OF SUBJECT HAVING HIGH SERUM URIC ACID LEVEL” (Indream Healthcare Inc., priority 2022, published 2025)

Columns and labels:
Format in all cases: in vivo, human
[1] = test system: patients with gout and a history of major cardiovascular diseases; experiment: Clinical trial analysis: risk of major cardiovascular events by serum uric acid concentration (<6 vs >=6) per patient group; details: for increase in risk of occurrence of major cardiovascular events (hazard ratio): serum uric acid maintained at or above 6 vs below 6
Description: (§1) A multicenter, randomized, double-blind non-inferiority trial was performed. The details of the clinical trial design have been published previously. An independent data and safety monitoring committee with access to unblinded data monitored the clinical trial. The statistical analysis for the data and the safety monitoring committee was performed by an independent statistical group (WebbWrites).
(§2) The patients were regarded as having a history of major cardiovascular diseases, if they had myocardial infarction, hospitalization for unstable angina, stroke, hospitalization for transient ischemic attack, peripheral vascular disease, or diabetes mellitus symptoms. All participants provided a prior informed consent form.
The patients were randomly assigned so that they received febuxostat or allopurinol administered once a day in a double-blind manner. The randomization was stratified according to the estimated creatinine clearance at baseline (patient group having an estimated creatinine clearance ≥60 ml per minute vs patient group having an estimated creatinine clearance ≥30 and <60 ml per minute).
The dose of allopurinol was modified according to a kidney function. The patients with the estimated creatinine clearance 60 ml or more per minute i) initially received allopurinol at a dose of 300 mg once a day, and the dose was increased in 100 mg increments monthly until the patient had the serum uric acid concentration of less than 6.0 mg per deciliter or the dosage of allopurinol was 600 mg once a day. The patient having the estimated creatinine clearance of 30 ml or more and less than 60 ml per minute initially received 200 mg of allopurinol, and then the dose was increased in 100 mg increments until the patient either had the serum uric acid concentration of less than 6.0 mg per deciliter or was receiving the allopurinol dose of 400 mg once daily.
The dose of febuxostat was not modified according to the kidney function. The patients who were randomly assigned to receive febuxostat initially received 40 mg once a daily, and continued to receive the same dosage if the serum uric acid concentration was less than 6.0 mg per deciliter after 2 weeks of the treatment. If the serum uric acid concentration was higher than 6.0 mg per deciliter at 2nd week visit, the dose of febuxostat was increased to 80 mg once daily for the remainder of the trial.

[2] = test system: patients with gout and a history of major cardiovascular diseases; experiment: Clinical trial: rate of gout flare; details: overall
Description: as §1, §2
All patients received prophylaxis for the first 6 months of the randomly assigned treatment.

[3] = test system: patients with gout and a history of major cardiovascular diseases; experiment: Clinical trial: proportion of patients reaching serum uric acid concentration targets; details: febuxostat group vs allopurinol group
Description: A multicenter, randomized, double-blind non-inferiority trial was performed. The details of the clinical trial design have been published previously. An independent data and safety monitoring committee with access to unblinded data monitored the clinical trial. The statistical analysis for the data and the safety monitoring committee was performed by an independent statistical group (WebbWrites). […] The patients were regarded as having a history of major cardiovascular diseases, if they had myocardial infarction, hospitalization for unstable angina, stroke, hospitalization for transient ischemic attack, peripheral vascular disease, or diabetes mellitus symptoms. All participants provided a prior informed consent form. The dose of allopurinol was modified according to a kidney function. […] The dose of febuxostat was not modified according to the kidney function. The patients who were randomly assigned to receive febuxostat initially received 40 mg once a daily, and continued to receive the same dosage if the serum uric acid concentration was less than 6.0 mg per deciliter after 2 weeks of the treatment. […] During the period, the administration of a double-blind and double-dummy trial medications was guided by an interactive voice-response system which was a procedure to prevent unblinding for the patients whose dose was not adjusted. After completing dose adjustment, the urate level was concealed from the investigators, and the treatment was managed throughout the trial using the interactive voice-response system. […] The patients with reduced kidney function or, the patients aged 65 years or older at randomization were visited at 9 and 15 months for monitoring the serum chemical profile. If the patient agreed to be monitored, but would not return for study visit, telephone contact was made, but such method was not preferred or recommended.

Structure (SMILES): O=c1ncnc2[nH][nH]cc1-2 [allopurinol]
- effect on cardiovascular disease when serum uric acid concentration is maintained below 6 ([1]; allopurinol: aged 65 years or older or BMI 30 kg/m^2 or less): effectively prevented or treated
- increase in risk of occurrence of major cardiovascular events (hazard ratio) ([1]; patient group aged 65 years or older): about 1.68 times
- increase in risk of occurrence of major cardiovascular events (hazard ratio) ([1]; patient group with BMI of 30 kg/m^2 or less): about 1.78 times
- rate of gout flare [2]: 0.63 per patient-year

Structure (SMILES): Cc1nc(-c2ccc(OCC(C)C)c(C#N)c2)sc1C(=O)O [febuxostat]
- proportion of patients with maintenance of serum uric acid concentration at less than 6.0 mg per deciliter ([3]; after 2nd week, at most times, difference not large): higher proportion
- proportion of patients with serum uric acid concentration of less than 6.0 mg per deciliter ([3]; at the 2nd week): higher
- proportion of patients with serum uric acid concentration of less than 5.0 mg per deciliter ([3]; entire trial): larger proportion
- effect on cardiovascular disease when serum uric acid concentration is maintained below 6 ([1]; febuxostat: aged 65 or older, glucose 126 mg/dl or more, LDL-cholesterol 100 mg/dl or less, DBP 80 or lower, or stroke or peripheral vascular disease history): prevented or treated
- rate of gout flare [2]: 0.68 per patient-year
